According to patent publication US5110976A, “Insecticidal composition comprising more than one active ingredient” (priority 1985, dated 1992):

Tests used:
[1] = tested on: house fly; experiment: Topical LD50 on house fly (mg/kg); format: in vivo; settings: Musca domestica, approximate, topically
From the text: (§1) The said selectivity index of the enantiomer-pair Ia amounts to 50/0.45=111.
(§2) In addition to the synergistic effect the composition of the present invention has a number of further advantages too and for this reason it is an outstanding product. It is very important that the compositions of the present invention are less toxical towards mammals than the hitherto known compositions of similar efficiency. […] The said selectivity index of Ia amounts to 50/0.45=111.

[2] = tested on: Acanthoscelides obtectus; experiment: Impregnated filter paper disc contact test, mortality (Table 1); format: in vivo, bean weevil (Acanthoscelides obtectus), imago
Method: (§3) The stereoisomers are dissolved in a 1:2 mixture of mineral oil and acetone and filter paper discs (Whatman No. 1., diameter 9 cm) are impregnated with the corresponding dosage of the solution of the active ingredient. The acetone is allowed to evaporate and the insects are examined on filter paper discs placed into Petri-dishes. Three parallels are used for each dose and 15 animals are placed in each Petri-dish. Mortality rate is determined after 24 hours. The corrected mortality % data are calculated by means of the Abbot formula.

[3] = tested on: Lucilia sericata; experiment: as above; format: in vivo, sheep maggot fly (Lucilia sericata), imago
Method: as §3

[4] = tested on: tribolium confusum; experiment: as above; format: in vivo, flour-beetle (tribolium confusum), imago
Method: as §3

[5] = Acute toxicity on rats and selectivity index; settings: rat, in vivo
From the text: as §1, §2

[6] = tested on: T. confusum; experiment: Contact test with piperonyl butoxide (Table 17); format: in vivo, flour-beetle (T. confusum), imagos
Method: The active ingredient is dissolved in a 1:2 mixture of oil and acetone; filter paper discs (Whatman No. 1, diameter 9 cm) are impregnated with the solutions of the corresponding stereoisomers and enantiomer-pairs, respectively. The acetone is allowed to evaporate, whereupon the insects are exposed to filter papers discs placed in Petri-dishes. Three parallels are used on each dose and 15 insects are placed into each Petri-dish. The percental mortality is determined after 24 hours. The corrected percent mortality is calculated by means of the Abbot Formula.
Imagos of flour-beetle (T. confusum) are treated in an analogous manner to Example 41. As synergist piperonyl butoxide is used in a dose of 0.5 mg/disc.

[7] = tested on: L. decemlineata; experiment: 5 EC formulations sprayed on glass plates (Table 20); format: in vivo, imagos; settings: 5 EC formulation, 48 hours
Method: (§4) The 5 EC formulations prepared according to Example 42 are diluted 50x, 100x, 200x, 400x, 800x and 1600x with water and 0.5 ml doses are sprayed onto glass plates. After drying 10 L. decemlineata imagos are placed on each glass plate and the insects are covered with Petri-dishes. The tests are carried out by using 6 doses and 3 parallels for each dose. The killed insects are counted after 48 hours.

[8] = tested on: Colorado potato beetle; experiment: Plot field test on Colorado potato beetle (Table 24); format: in vivo, adults; settings: 10 g active ingredients/ha
Method: The treatments are performed on a 25 m^2 plot strongly infected with Colorado potato beetle. 10 plants per plot are specially marked on which the Colorado potato beetles were counted previously. (During assessment of the number of pests only adults of the second Summer generation are taken into consideration, because at the point of time of the test the ratio of larvae of stages L3 and L4 is negligible). Treatment is accomplished on 25 M^2 plots at a dose of 10 g of active ingredients/ha with aqueous suspensions of the formulations according to Example 37 and three parallels are used. The test is evaluated by counting the leave insects on the marked plants. The average values of three parallel tests are disclosed in Table 24.

[9] = tested on: Acanthoscelides obtectus; experiment: 5 EC formulations sprayed on glass plates (Table 21); format: in vivo, bean weevil (Acanthoscelides obtectus), imagos; settings: 5 EC formulation, 24 hours, 1440 min
Method: as §4
Glass plates are sprayed with 5 EC formulations prepared according to Example 42 in an analogous manner to Example 52. After drying 10 bean weevil (Acanthoscelides obtectus) imagos are placed on each plate and the insects are covered with Petri-dishes. The killed insects are counted after 24 hours. The test is carried out with 6 doses by using 3 parallels for each dose.

[10] = tested on: Leptinotarsa decemlineara larvae; experiment: Paralysis of larvae on sprayed tomato plants (Table 23); format: in vivo, L3 stage larvae; settings: 6 hours
Method: Tomato plants pre-cultivated in pots are sprayed with a suspension of the active ingredient formed with a mixture of acetone and water. The treated plants are placed into isolators and infected with L3 stage Leptinotarsa decemlineara larvae. The percental ratio of paralyzed larvae which fall down from the plants is determined after 6 hours.

[11] = tested on: Myzus persicae; experiment: 5 EC formulations on aphid-infected bean plants (Table 22); format: in vivo, green peach aphids (Myzus persicae)
Method: 15 bean plants infected with green peach aphids (Myzus persicae) at 6 days' age are cultivated in each pot. At 12 days' age the strongly and uniformly infected plants are selected and sprayed to run-off with emulsions freshly prepared from the formulation according to Example 42. Treatments are carried out with three doses (active ingredient 2.5, 5 and 10 ppm) and four parallels are used (one pot per parallel). The second, fourth and eighth day after treatment the aphids are swept down from the plants to a white paper with a fine brush and the live insects are counted.

CC1(C)[C@H](C=C(Cl)Cl)[C@H]1C(=O)O[C@H](C#N)c1cccc(Oc2ccccc2)c1 (relative stereo) [Ib]
LD50 [1]: ~0.64 mg/kg
mortality at 20 µg/disc ([2]; Acanthoscelides obtectus, 0.02 mg/disc, 24 hours, Abbot corrected): 32%
mortality at 70 µg/disc ([2]; Acanthoscelides obtectus, 0.07 mg/disc, 24 hours, Abbot corrected): 55%
mortality at 220 µg/disc ([2]; Acanthoscelides obtectus, 0.22 mg/disc, 24 hours, Abbot corrected): 87%
mortality at 670 µg/disc ([2]; Acanthoscelides obtectus, 0.67 mg/disc, 24 hours, Abbot corrected): 100%
mortality at 2000 µg/disc ([2]; Acanthoscelides obtectus, 2.0 mg/disc, 24 hours, Abbot corrected): 100%
mortality at 6000 µg/disc ([2]; Acanthoscelides obtectus, 6.0 mg/disc, 24 hours, Abbot corrected): 100%
comparative activity ([2]; Ib versus Ia): more active than enantiomer-pair Ia
comparative activity ([3]; Ib versus Ia): more active than enantiomer-pair Ia
mortality at 20 µg/disc ([3]; Lucilia sericata, 0.02 mg/disc, 24 hours, Abbot corrected): 22%
mortality at 70 µg/disc ([3]; Lucilia sericata, 0.07 mg/disc, 24 hours, Abbot corrected): 55%
mortality at 220 µg/disc ([3]; Lucilia sericata, 0.22 mg/disc, 24 hours, Abbot corrected): 70%
mortality at 670 µg/disc ([3]; Lucilia sericata, 0.67 mg/disc, 24 hours, Abbot corrected): 75%
mortality at 2000 µg/disc ([3]; Lucilia sericata, 2.0 mg/disc, 24 hours, Abbot corrected): 100%
mortality at 6000 µg/disc ([3]; Lucilia sericata, 6.0 mg/disc, 24 hours, Abbot corrected): 100%
comparative activity ([4]; Ib versus Ia): more active than enantiomer-pair Ia
mortality at 20 µg/disc ([4]; Tribolium confusum, 0.02 mg/disc, 24 hours, Abbot corrected): 14%
mortality at 70 µg/disc ([4]; Tribolium confusum, 0.07 mg/disc, 24 hours, Abbot corrected): 73%
mortality at 220 µg/disc ([4]; Tribolium confusum, 0.22 mg/disc, 24 hours, Abbot corrected): 100%
mortality at 670 µg/disc ([4]; Tribolium confusum, 0.67 mg/disc, 24 hours, Abbot corrected): 100%
mortality at 2000 µg/disc ([4]; Tribolium confusum, 2.0 mg/disc, 24 hours, Abbot corrected): 100%
mortality at 6000 µg/disc ([4]; Tribolium confusum, 6.0 mg/disc, 24 hours, Abbot corrected): 100%
LD50 ([5]; po, rats, p.o., read-out: approximate LD50 toxicity): ~5000 mg/kg
selectivity ratio ([5]; quotient of approximate LD50 values on rats and house fly): 7800

CC1(C)C(C=C(Cl)Cl)C1C(=O)OC(C#N)c1cccc(Oc2ccccc2)c1 (centres unmarked) [Ia:Ib = 4:6]
synergizability with piperonyl butoxide ([6]; Ia:Ib=4:6 mixture versus Ia): can be synergized to a larger extent than enantiomer Ia
mortality at 25 µg/disc ([6]; Tribolium confusum, 24 h, 0.025 mg/disc, PBO, where added, 0.5 mg/disc): 0%
mortality at 50 µg/disc ([6]; Tribolium confusum, 24 h, 0.05 mg/disc, PBO, where added, 0.5 mg/disc): 18%
mortality at 100 µg/disc ([6]; Tribolium confusum, 24 h, 0.1 mg/disc, PBO, where added, 0.5 mg/disc): 57%
mortality at 200 µg/disc ([6]; Tribolium confusum, 24 h, 0.2 mg/disc, PBO, where added, 0.5 mg/disc): 90%
mortality at 400 µg/disc ([6]; Tribolium confusum, 24 h, 0.4 mg/disc, PBO, where added, 0.5 mg/disc): 100%
Mortality % ([7]; dilution 50x, 2880 min): 93%
Mortality % ([7]; dilution 100x, 2880 min): 80%
Mortality % ([7]; dilution 200x, 2880 min): 73%
Mortality % ([7]; dilution 400x, 2880 min): 53%
Mortality % ([7]; dilution 800x, 2880 min): 33%
Mortality % ([7]; dilution 1600x): 0%
Average number of live insects/10 plants ([8]; 0 days after treatment (control 211)): 213
Average number of live insects/10 plants ([8]; 1 day after treatment (control 206)): 8
Average number of live insects/10 plants ([8]; 3 days after treatment (control 179)): 4
Average number of live insects/10 plants ([8]; 9 days after treatment (control 183)): 22
Mortality % ([9]; dilution 50x): 70%
Mortality % ([9]; dilution 100x): 53%
Mortality % ([9]; dilution 200x): 37%
Mortality % ([9]; dilution 400x): 30%
Mortality % ([9]; dilution 800x): 17%
Mortality % ([9]; dilution 1600x): 10%
% ratio of paralyzed larvae ([10]; 8 ppm): 60%
% ratio of paralyzed larvae ([10]; 40 ppm): 75%
% ratio of paralyzed larvae ([10]; 200 ppm): 100%
% ratio of paralyzed larvae ([10]; 1000 ppm): 100%
Average number of aphids per pot ([11]; 2.5 ppm, 2 days after treatment (control 1850)): 38
Average number of aphids per pot ([11]; 2.5 ppm, 4 days after treatment (control 2780)): 71
Average number of aphids per pot ([11]; 2.5 ppm, 8 days after treatment (control 4120)): 251
Average number of aphids per pot ([11]; 5.0 ppm, 2 days after treatment (control 1850)): 21
Average number of aphids per pot ([11]; 5.0 ppm, 4 days after treatment (control 2780)): 32
Average number of aphids per pot ([11]; 5.0 ppm, 8 days after treatment (control 4120)): 82
Average number of aphids per pot ([11]; 10.0 ppm, 2 days after treatment (control 1850)): 10
Average number of aphids per pot ([11]; 10.0 ppm, 4 days after treatment (control 2780)): 11
Average number of aphids per pot ([11]; 10.0 ppm, 8 days after treatment (control 4120)): 21
